From patent US12661362B2, “Methods for the prevention and treatment of hearing loss” (Ting Therapeutics LLC, priority 2020, dated 2026)

Legend:
[1] = chemotherapy; cited from earlier work
FVB/NJ mice = assay: Safety monitoring of drugs IP in FVB/NJ mice, with or without Cisplatin; assay type: in vivo, mouse; details: for weight loss, pain and distress: Niclosamide 10, Ingenol 0.3, Elesclomol 5 mg/kg/day IP, 4 consecutive days
Description: To investigate the drugs' effects on mammalian auditory function in vivo, we first treated 5-7 weeks old FVB/NJ mice with […] drug candidates: Niclosamide (10 mg/kg/day), Ingenol (0.3 mg/kg/day), Elesclomol (5 mg/kg/day), for 4 consecutive days (IP) to monitor safety of the drugs. All tested doses were determined based on previous published data showing maximum non-toxic dose through intraperitoneal (IP) injection.
Baseline auditory brainstem response (ABR) were measured on 16 mice divided in 3 groups receiving Ingenol, Elesclomol, and Niclosamide. The mice received the drug doses described above, then on day 2 of drug injection mice also received 30 mg/kg Cisplatin (IP; 4 mice per group).

HEI-OC1 cells = assay: Caspase-Glo 3/7 assay in HEI-OC1 cells treated with Cisplatin; assay type: cell-based, mouse; details: Cisplatin 50 μM; for caspase activity: at a dosage of ~40 μM
Description: Now referring to FIG. 3A, and FIGS. 3D-3E, compounds protect from cisplatin toxicity in the mouse inner ear cell line. House Ear Institute-Organ of Corti 1 (HEI-OC1) cells (House Research Institute) were maintained in high-glucose Dulbecco's modified Eagle medium supplemented with 10% fetal bovine serum (Life Technologies, USA) at 33° C. and 10% CO2 as previously described (Kalinec et al., 2003). Cells were seeded at 8,000 cells/well in 96 well plates and left to attach overnight. Now referring to FIG. 3A, For the drug screening, HEI-OC1 cells were pretreated with 30 drug candidates at concentrations ranging from 2 nM to 40 μM one hour before receiving cisplatin. The cisplatin dose (50 μM) was based on our previously published dose response curve. The cells were co-incubated with cisplatin and drug candidates for an additional 19 hours prior to Caspase-Glo 3/7 assay (Promega, Madison, WI) as previously shown. Additionally, […] kenpaullone-treated cells were used as positive controls to validate our results. The DMSO concentration in drug preparation was adjusted to 0.1% v/v and it was verified that 0.5% DMSO had no effect on the cell death kinetics (Hall et al., 2014). Results of the assay were run in triplicate and normalized to cisplatin-only and media-only controls. The percent caspase activity was used to determine the relative protective effect of each compound. The luminescence detection representing caspase activity in each well was obtained using a Cytation Hybrid Multi-Mode Reader (Biotek, Winooski, VT, USA). The percent protection of the cells was calculated using caspase 3/7 readouts and the following formula: […]
In the following examples, Niclosamide, 5-chloro-N-(2-chloro-4-nitrophenyl)-2-hydroxy-benzamide, with a ≥95% purity was used for all experiments (Cayman Chemical, USA).

zebrafish neuromast HCs [2] = assay: Niclosamide/ezetimibe combination hair cell protection in Cisplatin-treated zebrafish (Loewe synergy); assay type: in vivo; details: 1.48 μM, cisplatin 300 μM
Description: Now referring to FIGS. 6A-6B, 5 dpf zebrafish were either incubated with vehicle (DMSO), cisplatin alone at 300 μM concentration, cisplatin and ezetimibe (0.002 μM to 13.3 μM), cisplatin and niclosamide (0.02 nM to 18.3 nM), or cisplatin and combination ezetimibe/niclosamide. After 6 hours, animals were transferred to fresh water for 1 hour and then sacrificed and processed for immunohistochemistry and HC count as described above. To further elucidate whether Niclosamide, synergizes with Nrf2 activators to protect zebrafish HCs from Cisplatin damage, we tested the extent of HC damage in presence of Niclosamide and a Nrf2 activator, ezetimibe.
A three-dimensional contour plot (A) showing dose response of neuromast hair cell protection in zebrafish treated with varying concentrations of niclosamide and ezetimibe mapped to synergy distribution. […] Other dose combinations showing synergy are shown in dark blue boxes. Dose combinations with scores of 0 and 1 show additive effect. *P<5×10−2; **P<10−3, ***P<10−4 versus control fish, One-sample t-test run by the Combenefit software44. Data is shown as mean±standard deviation.
Zebrafish were treated with combinations of Niclosamide (ranging from 0.02-18.3 nM) and EZ (ranging from 0.0183-13.3 μM).

zebrafish neuromast HCs [3] = assay: Zebrafish lateral-line neuromast hair cell protection against Cisplatin; assay type: in vivo, Danio rerio; details: doses of 0.002, 0.0183, 0.165 and 1.48 μM; Cisplatin 4 hours
Description: Danio rerio experimental larvae were obtained by pair mating of adult fish maintained at Creighton University by standard methods approved by the Institutional Animal Care and Use Committee. […] We used Tg(pou4f3:mGFP) expressing a membrane bound GFP in HCs. Experimental fish were maintained at 28.5° C. in E3 media (5 mM NaCl, 0.17 mM KCl, 0.33 mM CaCl2) and […], pH 7.2). Animals were cryoanaesthetized after drug treatment and prior to fixation. The neuromasts inspected, S03 and 01-2, were part of the cranial system and included the otic, middle, and opercular neuromasts.
Subsequently, animals were transferred to E3 water for 5 hours and fixed in 4% paraformaldehyde (PFA) overnight (26). Neuromast HCs were immunolabeled with anti-otoferlin (HCS-1, DSHB) and anti-GFP (NB100-1614, Novus Biologicals). These two markers were used to detect and count neuromast HCs to reduce the chances of missing some of the HCs after the treatment since we previously noticed that incubation with the compounds can affect GFP expression more difficult to detect under a fluorescence microscope. Otic, middle, and opercular neuromasts were identified, and HCs at S03 (supraorbital line neuromast) and 01-2 (Otic line neuromasts) were manually counted using a Zeiss AxioSkop 2 fluorescence microscope with a 40× oil objective. Compounds were then evaluated on efficiency and potency, with the top-rated compounds showing high protection at lower concentrations.

N.N.[Cl][Pt][Cl] [Cisplatin]
treated cancer patients with permanent hearing loss [1]: 40-60%
weight loss (FVB/NJ mice; Cisplatin alone, 30 mg/kg IP): 10-15%

CN(NC(=O)CC(=O)NN(C)C(=S)c1ccccc1)C(=S)c1ccccc1 [Elesclomol]
caspase activity (HEI-OC1 cells): 20%
caspase-3/7 activity relative to control cells (HEI-OC1 cells; dose of 40 μM): reduce caspase activity to comparable levels as control cells
weight loss, pain and distress (FVB/NJ mice): None of the mice showed reduced weight loss or signs of pain and distress

O=C1[C@H](CC[C@H](O)c2ccc(F)cc2)[C@@H](c2ccc(O)cc2)N1c1ccc(F)cc1 [Ezetimibe]
HC per neuromast counts, compound alone (zebrafish neuromast HCs [2]): higher HC per neuromast counts

CC1=C[C@]23C(=O)[C@@H](C=C(CO)[C@@H](O)[C@]2(O)[C@H]1O)[C@H]1[C@@H](C[C@H]3C)C1(C)C [Ingenol]
IC50 (HEI-OC1 cells; Mus musculus, HEI-OC1, HEI-OC1 cells, read-out: calculated IC50 (percent protection from caspase 3/7 readout)): 1540 nM
caspase activity (HEI-OC1 cells): 30%
weight loss, pain and distress (FVB/NJ mice): None of the mice showed reduced weight loss or signs of pain and distress
protection against CIHL in zebrafish (zebrafish neuromast HCs [3]): showed protection against CIHL
